{
  "source": "paper PMC5000756",
  "about": "“Involvement of Three Esterase Genes from Panonychus citri (McGregor) in Fenpropathrin Resistance” (International Journal of Molecular Sciences, 2016)",
  "molecular_target": "T1, PcE1 (Panonychus citri, UniProt D7NHW8)",
  "T1 construct": "ORF in pFastBac HTA, baculovirus-infected Sf9 cells; supernatant of cell homogenate",
  "T1 sequence (D7NHW8 19-550)": "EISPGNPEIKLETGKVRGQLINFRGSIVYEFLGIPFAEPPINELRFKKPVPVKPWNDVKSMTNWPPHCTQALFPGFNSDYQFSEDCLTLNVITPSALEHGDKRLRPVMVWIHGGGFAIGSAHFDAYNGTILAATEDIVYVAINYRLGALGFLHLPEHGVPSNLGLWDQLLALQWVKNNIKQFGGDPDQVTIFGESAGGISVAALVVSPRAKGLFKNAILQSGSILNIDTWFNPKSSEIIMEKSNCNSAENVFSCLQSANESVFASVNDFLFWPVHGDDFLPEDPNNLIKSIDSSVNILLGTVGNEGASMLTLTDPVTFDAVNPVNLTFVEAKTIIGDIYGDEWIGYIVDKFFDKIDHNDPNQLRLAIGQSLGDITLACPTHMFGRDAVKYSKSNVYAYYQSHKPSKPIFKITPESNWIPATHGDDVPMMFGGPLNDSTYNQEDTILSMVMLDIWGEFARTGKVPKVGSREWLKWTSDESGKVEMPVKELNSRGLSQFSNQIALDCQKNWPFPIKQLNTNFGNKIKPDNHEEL",
  "test": "spectrophotometric, fast blue coupling, […] nm",
  "type": "biochemical",
  "settings": "Sf9 cell lysate versus GFP control; pH 7.0, 30 °C",
  "data": [
    {"molecule": "CC(=O)Oc1cccc2ccccc12", "note": "[α-naphthyl acetate]", "values": [
      {"measurement": "spectrophotometric, fast blue coupling, 600 nm", "result": "All recombinant proteins showed significant catalytic activities when α-NA was used as the substrate"}
    ]}
  ]
}
